± gives the expanded uncertainty stated by the source.
Conditions: Crystal; DTA

A Normal melting temperature of 103.20 ± 0.41 °C was found for `CC[n+]1ccccc1.F[P-](F)(F)(F)(F)F` [1-ethylpyridinium hexafluorophosphate] in this work.

Source: the NIST ThermoML archive (doi:10.1021/je800618x)
